The record followed here is PubChem BioAssay AID1963851 (Molecular Pharmacology Branch, DTP, NCI, 2024).

Usually viability, T/C stands for the result in the treated group divided by that in the control group, in per cent. As usually defined, the IC50 is the concentration at which inhibition is half-maximal.

For this assay, the system named is 188146-221-R-J1-PDC complex spheroid viability. Description: Anticancer human tumor 188146-221-R-J1-PDC patient-derived colon adenocarcinoma cell line growth inhibition [POLQ]. The conditions noted are these: for viability, T/C: stronger effect = lower value; for IC50: curve of compound. The procedure:
Multicellular complex tumor spheroid response to Polymerase (POL) inhibitors (novobiocin, ART-558, RP6685) in combination with a variety of drugs and investigational agents in selected tumor cell lines
The POL inhibitors (novobiocin, ART-558, and RP6685) were evaluated both individually and in combination with standard of care and investigational anticancer small molecules within a complex spheroid model of solid tumors. . Complex spheroids include a stromal component modeled by human endothelial cells (HUVEC) and fibroblasts modeled by human mesenchymal stem cells (MSCs). The concentration ranges selected for each drug and investigational agent were based upon clinically achievable concentrations if the clinical Cmax of the agent was known.
Compounds. The drugs and investigational agents: novobiocin (NSC847541), ART-558 (NSC835418), RP-6685 (NSC848927), peposertib (NSC802822), ceralasertib (NSC780249), elimusertib (NSC800525), camonsertib (NSC841442), AZD-1390 (NSC803789), olaparib (NSC753686), talazoparib (NSC767125), rucaparib (NSC756644), sotorasib (NSC818433), MRTX-1133 (NSC836407), SN-38 (NSC673596), topotecan (NSC609699), epotoside (NSC141540), doxorubicin (NSC123127), gemcitabine (NSC613327), 5-fluorouracil (NSC19893), paclitaxel (NSC125973), vemurafenib (NSC761431), MSA-2 (NSC828583), SN-011 (NSC837082), adavosertib (NSC754352), prexasertib (NSC758257), carboplatin (NSC241240) and oxaliplatin (NSC266046), were obtained from the National Cancer Institute (NCI) Developmental Therapeutics Program Chemical Repository (21). The FDA-approved anticancer drug set is available from the Developmental Therapeutics Program at https://dtp.cancer.gov/organization/dscb/obtaining/. […] The stock solutions were prepared in dimethyl sulfoxide (DMSO, Sigma-Aldrich, St. Louis, MO, cat. D2650), except for the platinum compounds which were prepared in saline (Quality Biological, Gaithersburg, MD, cat. 114-055-101), at 800-fold the tested concentration and stored at -70 degrees C prior to their use. All drugs and investigational agents were tested over a range starting from a high concentration at or near the clinical Cmax and decreasing in half-log increments. If the clinical Cmax for an agent had not been determined, the highest concentration tested was 10 microM, except for SN-38, which was tested at a high concentration of 1 microM.
Cell Culture. All cells were maintained in an incubator at 37 degrees C and 5% CO2 with 95% humidity. The PDC lines were cultured according to standard operating procedures established by the NCI PDMR (https://pdmr.cancer.gov). Table 3 of the manuscript, lists the cell lines along with the number of the three cell types plated to form the mct-spheroids and media for tumor cell growth. After thawing, all PDC lines, except 997537-175-T-J1-PDC and 415267-285-R-J2-PDC, were cultured in Matrigel-coated flasks prepared with a working solution of 1X Ham's F-12 nutrient mix, without supplementation (Thermo Fisher Scientific, cat. 11765054), 100 U/mL penicillin-streptomycin (Thermo Fisher Scientific, cat. 15140122), and 2.5% Matrigel (Corning Inc., Corning, NY, cat. 354248) for the first three passages. The two PDC lines 997537-175-T-J1-PDC and 415267-285-R-J2-PDC were cultured on uncoated flasks. The 857933-349-R-J2-PDC line was cultured in 6C/Colon 1B media containing advanced DMEM/F-12 (Thermo Fisher Scientific, cat. 12634028), 10 mM HEPES (Thermo Fisher Scientific, cat. 15630080), 1X GlutaMAX supplement (Thermo Fisher Scientific, cat. 35050061), 0.1 mg/mL primocin (InvivoGen, San Diego, CA, cat. ant-pm-2), 10% defined fetal bovine serum, heat inactivated (HyClone Laboratories Inc., Logan, UT, cat. SH30070.03HI), 50% L-WRN conditioned media (ATCC, cat. CRL-3276), 1.25 mM N-Acetyl-L-cysteine (Sigma-Aldrich, cat. A9165), 10 mM nicotinamide (Sigma-Aldrich, cat. N0636), 1X B-27 supplement (Thermo Fisher Scientific, cat. 17504044), 1X N-2 supplement (Thermo Fisher Scientific, cat. […]

Structures are written as SMILES. Several values for one entry are separate records, joined by “and”; a condition that tells them apart may be missing. Equal entries are not always repeated. Some results are limits rather than exact numbers.
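Also: spheroids exposed to compounds for seven days.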

On to `C=CC(=O)N1CCN(c2nc(=O)n(-c3c(C)ccnc3C(C)C)c3nc(-c4c(O)cccc4F)c(F)cc23)C(C)C1` (stereo not given), for which the IC50 was above 10000 nM. Where the note is “compound 0.0316 µM”, the viability, T/C is 113% and 101% and 99.7%. Further, the viability, T/C (compound 0.1 µM) was 104% and 89.7% and 107%. Further, the viability, T/C (compound 0.316 µM) was 95.9% and 90.8% and 87.1%. For the same compound, for the setting “compound 1 µM”, the viability, T/C is 109% and 113% and 108%. The viability, T/C (compound 3.16 µM) is 92.2% and 92.1% and 101%. Further, the viability, T/C (compound 10 µM) was 68% and 102% and 77.7%.

`C=CCn1c(=O)c2cnc(Nc3ccc(N4CCN(C)CC4)cc3)nc2n1-c1cccc(C(C)(C)O)n1`: the IC50 was above 1000 nM. In addition, the viability, T/C (compound 0.00316 µM) was 96.3% and 101% and 120%. In addition, the viability, T/C (compound 0.01 µM) is 104% and 117% and 103%. The viability, T/C (compound 0.0316 µM) was 94.6% and 104% and 95.5%. For the same compound, where the note is “compound 0.1 µM”, the viability, T/C is 98.4% and 100% and 113%. For the same compound, the viability, T/C (compound 0.316 µM) was 99% and 117% and 98.4%. For the same compound, the viability, T/C (compound 1 µM) is 60.4% and 62.4% and 59%.

In the case of `CC(=O)O[C@H]1C(=O)[C@@]2(C)[C@H]([C@H](OC(=O)c3ccccc3)[C@]3(O)C[C@H](OC(=O)[C@H](O)[C@@H](NC(=O)c4ccccc4)c4ccccc4)C(C)=C1C3(C)C)[C@]1(OC(C)=O)CO[C@@H]1C[C@@H]2O`, the IC50 was 12.2 nM and 13.3 nM and 17.4 nM. In addition, the viability, T/C (compound 0.00949 µM) is 58.2% and 63% and 74.9%. For the same compound, the viability, T/C (compound 0.03 µM) is 20.7% and 18.6% and 27.6%. The viability, T/C (compound 0.0949 µM) is 13.3% and 12.8% and 9.47%. For the same compound, where the note is “compound 0.3 µM”, the viability, T/C is 11.7% and 11.9% and 11.2%. For the same compound, under “compound 0.949 µM”, the viability, T/C was 15.4% and 12.2% and 9.82%. For the same compound, under “compound 3 µM”, the viability, T/C was 13.5% and 12.8% and 9.87%.

As for `CC(C)n1c(=O)n(C)c2cnc3cc(F)c(-c4ccc(OCCCN5CCCCC5)nc4)cc3c21`, the IC50 was above 10000 nM. Under “compound 0.0316 µM”, the viability, T/C was 96.9% and 102% and 108%. Besides, under “compound 0.1 µM”, the viability, T/C was 111% and 96.7% and 100%. Moreover, where the note is “compound 0.316 µM”, the viability, T/C is 88.3% and 89.4% and 92.5%. The viability, T/C (compound 1 µM) was 105% and 101% and 110%. For the same compound, the viability, T/C (compound 3.16 µM) was 104% and 106% and 88.8%. In addition, under “compound 10 µM”, the viability, T/C was 77% and 95.2% and 71.2%.

Turning to `CC1COCCN1c1cc(-c2ccnn2C)c2ccnc(-c3ccn[nH]3)c2n1` (stereo not given), the IC50 was 239 nM and 230 nM and 198 nM. In addition, the viability, T/C (compound 0.0316 µM) is 86.5% and 92.4% and 75%. Also, the viability, T/C (compound 0.1 µM) was 74.4% and 67.1% and 60.5%. Under “compound 0.316 µM”, the viability, T/C was 42.4% and 42.7% and 43.7%. Further, the viability, T/C (compound 1 µM) was 19.7% and 27.9% and 21.6%. The viability, T/C (compound 3.16 µM) was 17% and 16.9% and 14.9%. For the same compound, the viability, T/C (compound 10 µM) was 14.1% and 11.3% and 13.9%.

Turning to `CC1COCCN1c1cc(C2(S(C)(=N)=O)CC2)nc(-c2ccnc3[nH]ccc23)n1` (stereo not given), the IC50 is 5050 nM and 4620 nM and 4330 nM. Also, the viability, T/C (compound 0.0316 µM) is 100% and 105% and 99.8%. Also, the viability, T/C (compound 0.1 µM) is 95.1% and 99.5% and 101%. The viability, T/C (compound 0.316 µM) was 89.3% and 114% and 98%. Moreover, the viability, T/C (compound 1 µM) was 94.8% and 91.6% and 89.8%. Where the note is “compound 3.16 µM”, the viability, T/C is 68.1% and 61.6% and 60.5%. Moreover, the viability, T/C (compound 10 µM) is 23.7% and 27.7% and 21.9%.

With `CCCS(=O)(=O)Nc1ccc(F)c(C(=O)c2c[nH]c3ncc(-c4ccc(Cl)cc4)cc23)c1F`, the IC50 was 7790 nM and 7060 nM and 5830 nM. For the same compound, the viability, T/C (compound 0.0316 µM) is 104% and 98.2% and 96.2%. Further, the viability, T/C (compound 0.1 µM) is 108% and 92.2% and 102%. Moreover, the viability, T/C (compound 0.316 µM) is 111% and 95.7% and 82.7%. Moreover, the viability, T/C (compound 1 µM) was 90.1% and 79.7% and 80.1%. For the same compound, where the note is “compound 3.16 µM”, the viability, T/C is 83.9% and 85.2% and 81.8%. The viability, T/C (compound 10 µM) was 40.6% and 36.2% and 25.4%.

Regarding `CC[C@@]1(O)C(=O)OCc2c1cc1n(c2=O)Cc2cc3c(CN(C)C)c(O)ccc3nc2-1`, the IC50 was above 100 nM. Also, the viability, T/C (compound 0.000316 µM) is 101% and 91.4% and 104%. Further, under “compound 0.001 µM”, the viability, T/C was 99.7% and 100% and 110%. In addition, the viability, T/C (compound 0.00316 µM) is 87.8% and 92.4% and 88.8%. Where the note is “compound 0.01 µM”, the viability, T/C was 103% (2×) and 107%. For the setting “compound 0.0316 µM”, the viability, T/C was 101% and 92.7% and 97.3%. Also, the viability, T/C (compound 0.1 µM) was 71.1% and 63.3% and 63.1%.

For the compound `CCc1c2c(nc3ccc(O)cc13)-c1cc3c(c(=O)n1C2)COC(=O)[C@]3(O)CC`, the concentration for half-maximal inhibition (IC50) was 20.9 nM and 25.1 nM and 19 nM. For the same compound, the viability, T/C (compound 0.00316 µM) was 98.1% and 104% and 88.5%. For the setting “compound 0.01 µM”, the viability, T/C was 73.8% and 73.1% and 74.3%. Where the note is “compound 0.0316 µM”, the viability, T/C is 35.4% and 45.1% and 29.7%. The viability, T/C (compound 0.1 µM) is 18% and 23.1% and 19.6%. Also, the viability, T/C (compound 0.316 µM) was 12% and 12.2% and 13.3%. Also, under “compound 1 µM”, the viability, T/C was 6.11% and 8.93% and 6.3%.

For `CNCc1ccc(-c2[nH]c3cc(F)cc4c3c2CCNC4=O)cc1`, the IC50 was above 10000 nM. Moreover, for the setting “compound 0.0316 µM”, the viability, T/C was 111% and 108% and 115%. Besides, for the setting “compound 0.1 µM”, the viability, T/C was 108% and 97.9% and 106%. For the same compound, the viability, T/C (compound 0.316 µM) was 102% and 109% and 99.4%. Further, the viability, T/C (compound 1 µM) is 105% and 104% and 103%. The viability, T/C (compound 3.16 µM) was 112% and 105% and 113%. Moreover, the viability, T/C (compound 10 µM) is 100% and 99.3% and 95.5%.
